Measured values from US20250295634A1, “USE OF ANTIANDROGENS TO TREAT SEPSIS” (Rhode Island Hospital, priority 2024, published 2025).
Like-named read-outs stand apart in the source and are kept apart here.

Experiments:
[1] = system: COVID-19; settings: cited from earlier work
[2] = system: COVID-19; settings: at five days of therapy; cited from earlier work
[3] = in vivo; cited from earlier work
[4] = system: TMPRSS2; settings: in men; cited from earlier work
[5] = system: angiotensin converting enzyme 2 (ACE2); settings: in men; cited from earlier work
[6] = system: COVID-19; settings: men with diagnosis of AGA, outpatient setting; cited from earlier work
[7] = system: COVID-19; settings: cited from earlier work; remark: listed apart in the source
[8] = system: TMPRSS2; settings: cited from earlier work
[9] = system: COVID-19; settings: inventors' reading of Welén et al.; the authors report no evidence of benefit; cited from earlier work
[10] = system: sepsis; settings: fecal peritonitis model; cited from earlier work
[11] = system: COVID-19; experiment: Clinical trial of proxalutamide in hospitalized COVID-19 patients in Brazil (NCT04728802); type: in vivo, human; settings: initiated in patients that don't require supplemental O2
[12] = system: COVID-19; settings: men, proxalutamide 200 mg for up to seven days; cited from earlier work
[13] = system: COVID-19; settings: cited from earlier work; remark: listed apart in the source
[14] = target: T1, androgen receptor (Homo sapiens, UniProt P10275); settings: clinical evidence; cited from earlier work
T1 sequence (P10275 1-920): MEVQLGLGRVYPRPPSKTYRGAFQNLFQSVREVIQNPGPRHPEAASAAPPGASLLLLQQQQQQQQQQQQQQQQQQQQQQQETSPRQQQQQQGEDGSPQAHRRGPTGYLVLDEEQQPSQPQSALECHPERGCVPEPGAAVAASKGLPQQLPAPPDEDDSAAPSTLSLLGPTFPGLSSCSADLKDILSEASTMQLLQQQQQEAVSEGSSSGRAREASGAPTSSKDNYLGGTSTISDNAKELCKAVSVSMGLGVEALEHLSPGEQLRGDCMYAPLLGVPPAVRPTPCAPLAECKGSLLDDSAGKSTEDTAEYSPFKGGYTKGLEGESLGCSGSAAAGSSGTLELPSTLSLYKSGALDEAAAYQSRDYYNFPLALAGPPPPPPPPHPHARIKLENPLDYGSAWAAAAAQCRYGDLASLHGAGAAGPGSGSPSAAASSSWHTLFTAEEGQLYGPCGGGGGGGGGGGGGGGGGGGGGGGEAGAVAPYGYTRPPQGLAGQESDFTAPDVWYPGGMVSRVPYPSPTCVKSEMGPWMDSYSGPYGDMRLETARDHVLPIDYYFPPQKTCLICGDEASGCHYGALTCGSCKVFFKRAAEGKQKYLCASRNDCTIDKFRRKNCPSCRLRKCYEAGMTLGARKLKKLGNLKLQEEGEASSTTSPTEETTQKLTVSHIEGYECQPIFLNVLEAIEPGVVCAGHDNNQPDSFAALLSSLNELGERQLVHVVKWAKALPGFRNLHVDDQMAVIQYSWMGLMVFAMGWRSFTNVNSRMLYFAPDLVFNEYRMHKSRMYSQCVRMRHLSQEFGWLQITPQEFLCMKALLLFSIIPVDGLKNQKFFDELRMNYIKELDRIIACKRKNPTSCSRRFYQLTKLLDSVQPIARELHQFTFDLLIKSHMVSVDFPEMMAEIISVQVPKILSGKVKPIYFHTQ

[15] = system: ACE2; settings: cited from earlier work
[16] = system: COVID-19; settings: patients with severe lung involvement; cited from earlier work
[17] = system: COVID-19; settings: single case; case report later retracted; cited from earlier work

## C[C@]12CCC(=O)C=C1C=C[C@@H]1[C@@H]2CC[C@@]2(C)[C@H]1CC[C@@]21CCC(=O)O1 [Canrenone]
[1]; intensive care observational series of cases with hypertension or hypokalemia
  fatalities: associated with reduced fatalities

## CC(C)(C)NC(=O)[C@H]1CC[C@H]2[C@@H]3CC[C@H]4NC(=O)C=C[C@]4(C)[C@H]3CC[C@]12C [Finasteride]
[2]
  peripheral capillary oxygen saturation: clinically and statistically significant improvement
[3]
  half-life: six

## C[C@]12CCC(=O)C=C1C=C[C@@H]1[C@@H]2CC[C@@]2(C)[C@H]1CC[C@@]2(O)CCC(=O)O [Potassium canrenoate]
[1]; severe COVID patients
  all-cause mortality: proven to reduce all-cause mortality

## C[C@]12C=CC(=O)N[C@@H]1CC[C@@H]1[C@@H]2CC[C@]2(C)[C@@H](C(=O)Nc3cc(C(F)(F)F)ccc3C(F)(F)F)CC[C@@H]12 [dutasteride]
[4]
  expression of TMPRSS2: decrease the expression
[5]
  expression of ACE2: decrease the expression
[6]
  symptomatic COVID-19 disease: less symptomatic COVID-19 disease
[3]
  half-life: five

## CNC(=O)c1ccc(N2C(=S)N(c3ccc(C#N)c(C(F)(F)F)c3)C(=O)C2(C)C)cc1F [enzalutamide]
[7]; human, in vivo
  mortality, subgroup analysis: significantly reduce mortality
[8]
  TMPRSS2 regulation: significantly downregulated TMPRSS2
[9]
  effect on hospitalized COVID-19 patients: positive effects
[3]
  half-life: 140 h

## COCCCC/C(=N\OCCN)c1ccc(C(F)(F)F)cc1 [fluvoxamine]
[10]
  anti-sepsis activity: anti-sepsis activity

## CC1(C)C(=O)N(c2ccc(C#N)c(C(F)(F)F)c2F)C(=S)N1c1ccc(CCCc2ncco2)nc1 [proxalutamide]
[11]
  survival: no difference in survival
[12]
  30-day hospitalization rate: about 2%
  reduction of the risk of hospitalization compared to usual care: more than 90%
[13]; data from Brazil, both arms using corticosteroids
  mortality in COVID-19 patients: dramatic impact of proxalutamide in reducing mortality
[13]; hospitalized COVID-19 patients
  lung opacities compared to placebo: improves lung opacities
[14]
  androgen receptor expression and activity: lowers androgen receptor expression and activity
[15]
  expression of ACE2: lowers the expression of ACE2
[7]; meta-analysis of RCTs
  mortality, subgroup analysis: significantly reduce mortality
[16]
  benefit vs standard-of-care which includes steroids: showed benefit
[17]
  symptom resolution and laboratory improvement: striking symptom resolution and laboratory improvement within twenty-four hours

## CC(=O)S[C@@H]1CC2=CC(=O)CC[C@]2(C)[C@H]2CC[C@@]3(C)[C@@H](CC[C@@]34CCC(=O)O4)[C@H]12 [spironolactone]
[4]
  expression of TMPRSS2: decrease the expression
[5]
  expression of ACE2: decrease the expression
